Source: patent US10604554B2, “Double-acylated GLP-1 derivatives” (Novo Nordisk A/S, priority 2012, dated 2020)
Numbered stars: 1 amine (or outer) side, 2 acyl side, 3 side chain; on linkers, the order of the positions; unused ones are H or OH. Square brackets hold non-standard residues; d marks the D form. Side chains are listed from the residue outwards. Peptide text beside a SMILES is read from it. * marks the point of attachment. Undecanoyl(11-OPh(4-COOH)) = O=C(O)c1ccc(OCCCCCCCCCCC(=O)*)cc1; γGlu = O=C(O)[C@H](CCC(=O)[*:2])N[*:1]; εLys = N[C@@H](CCCCN[*:1])C(=O)[*:2]; Aib = CC(C)(N)C(=O)O

What was measured:
human GLP-1 receptor [1] = target: T1, human GLP-1 receptor (Homo sapiens, UniProt P43220); test: GLP-1 receptor binding (SPA, displacement of 125I-GLP-1)
T1 construct: expressed in transfected cells; host or cells: BHK cells, clone FCW467-12A/KZ10-1 (parent line BHKTS13), further transfected with CRE luciferase
T1 sequence (P43220 24-463): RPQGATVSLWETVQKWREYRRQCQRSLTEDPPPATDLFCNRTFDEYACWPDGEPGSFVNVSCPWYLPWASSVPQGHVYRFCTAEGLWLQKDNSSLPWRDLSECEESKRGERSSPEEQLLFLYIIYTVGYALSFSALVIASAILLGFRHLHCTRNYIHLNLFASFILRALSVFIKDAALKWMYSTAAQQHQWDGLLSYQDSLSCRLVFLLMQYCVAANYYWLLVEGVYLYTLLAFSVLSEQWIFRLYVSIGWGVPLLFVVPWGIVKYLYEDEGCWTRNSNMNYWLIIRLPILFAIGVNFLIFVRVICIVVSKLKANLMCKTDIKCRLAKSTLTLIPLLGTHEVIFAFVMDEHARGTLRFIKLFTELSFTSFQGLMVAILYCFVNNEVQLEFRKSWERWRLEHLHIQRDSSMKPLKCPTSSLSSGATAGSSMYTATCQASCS
Procedure, shortened: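 Membranes from a stably transfected hamster cell line, 5-10 ug protein/sample, with WGA SPA beads and [125I]-GLP-1(7-36)NH2 at 0.06 nM final. Incubated 120 min at 30 °C with shaking, then counted.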

[2] = Pharmacokinetic (PK) study in rat; conditions: male, Sprague Dawley, in vivo, iv, 6 nmol/kg
Procedure: The purpose of this Example is to investigate half-life in vivo in rat.
In vivo pharmacokinetic studies in rats were performed with the GLP-1 derivatives of a number of the Example compounds, as described in the following.
Male Sprague Dawley rats of same age with a body weight of approximately 400 g were obtained from Taconic (Denmark) and assigned to the treatments by simple randomisation on body weight, approximately 4 rats per group.
The GLP-1 derivatives (approximately 6 nmol/ml) were dissolved in 50 mM sodium phosphate, 145 mM sodium chloride, 0.05% tween 80, pH 7.4. Intravenous injections (1.0 ml/kg) of the compounds were given with a syringe in the tail vein of conscious rats. Blood was sampled from vena sublingualis for 5 days post dosing. Blood samples (200 μl) were collected in EDTA buffer (8 mM) and then centrifuged at 4° C. and 10000 G for 5 minutes. Plasma samples were kept at −20° C. until analyzed for plasma concentration of the respective GLP-1 compound.
The donor beads were coated with streptavidin, while acceptor beads were conjugated with a monoclonal antibody recognising a mid-/C-terminal epitope of the peptide. Another monoclonal antibody, specific for the N-terminus, was biotinylated. The three reactants were combined with the analyte and formed a two-sited immuno-complex. Illumination of the complex released singlet oxygen atoms from the donor beads, which were channeled into the acceptor beads and triggered chemiluminescence which was measured in an Envision plate reader. The amount of light was proportional to the concentration of the compound.
Plasma concentration-time profiles were analyzed using Phoenix WinNonLin ver. 6.2, Pharsight Inc., Mountain View, Calif., USA), and the half-life (T1/2) calculated using individual plasma concentration-time profiles from each animal.

human GLP-1 receptor [3] = target: T1, human GLP-1 receptor; test: In vitro potency (CRE luciferase; whole cells); format: cell-based; set-up: EC50/pM (ratio 1% HSA/0% HSA): unit not given here; conditions: for EC50: BHK cells; for EC50/pM (ratio 1% HSA/0% HSA): ratio of EC50 at 1% HSA to EC50 at 0% HSA
Procedure, shortened: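 Stably transfected BHK cells carrying human GLP-1R and a CRE–firefly luciferase reporter, 5×10^3 cells/well in assay medium, run with 0% or 1% HSA in assay buffer.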

[4] = test system: Landrace Yorkshire Duroc (LYD) pigs; test: Pharmacodynamic (PD) study in pigs, food intake; format: in vivo, pig; conditions: single s.c. dose 3.0 nmol/kg
Procedure: The purpose of this experiment was to investigate the effect of a couple of Example compounds on food intake in pigs. This was done in a pharmacodynamic (PD) study as described below, in which food intake was measured from 1 to 4 days after administration of a single dose of the GLP-1 derivative, as compared to a vehicle-treated control group.
Female Landrace Yorkshire Duroc (LYD) pigs, approximately 3 months of age, weighing approximately 30-35 kg were used (n=3-4 per group). The animals were housed in a group for approximately 1 week during acclimatisation to the animal facilities. During the experimental period the animals were placed in individual pens at least 2 days before dosing and during the entire experiment for measurement of individual food intake. The animals were fed ad libitum with pig fodder (Svinefoder Danish Top) at all times both during the acclimatisation and the experimental period. Food intake was monitored on line by logging the weight of fodder every 15 minutes. The system used was Mpigwin (Ellegaard Systems, Faaborg, Denmark).
The phosphate buffer serves as vehicle. Animals are dosed with a single subcutaneous dose of the GLP-1 derivative or vehicle (dose volume 0.025 ml/kg) on the morning of day 1, and food intake is measured for 1 day after dosing. On the last day of each study, 1-4 days after dosing, a blood sample for measurement of plasma exposure of the GLP-1 derivative is taken from the heart in anaesthetised animals. The animals are thereafter euthanised with an intra-cardial overdose of pentobarbitone.
Food intake is calculated as mean±SEM food intake in 24 h intervals (0-24 h, 24-48 h, and 48-72 h). In Table 6 below the food intake is indicated as percentage of the food intake of the vehicle group in the same time interval (dosage 3.0 nmol/kg).
Statistical comparisons of the food intake in the 24 h intervals in the vehicle vs. GLP-1 derivative group are done using two-way-ANOVA repeated measures, followed by Bonferroni post-test.

[5] = Pharmacokinetic (PK) study in minipig; conditions: male, Göttingen, in vivo, iv
Procedure: The purpose of this study is to determine the protraction in vivo of the GLP-1 derivatives after i.v. administration to minipigs, i.e. the prolongation of their time of action. This is done in a pharmacokinetic (PK) study, where the terminal half-life of the derivative in question is determined. By terminal half-life is generally meant the period of time it takes to halve a certain plasma concentration, measured after the initial distribution phase.
Study A: Male Göttingen minipigs were obtained from Ellegaard Göttingen Minipigs (Dalmose, Denmark) approximately 7-14 months of age and weighing from approximately 16-35 kg were used in the studies. The minipigs were housed individually and fed restrictedly once or twice daily with SDS minipig diet (Special Diets Services, Essex, UK). After at least 2 weeks of acclimatisation two permanent central venous catheters were implanted in vena cava caudalis or cranialis in each animal. The animals were allowed 1 week recovery after the surgery, and were then used for repeated pharmacokinetic studies with a suitable wash-out period between successive GLP-1 derivative dosings.
The animals were fasted for approximately 18 h before dosing and from 0 to 4 h after dosing, but had ad libitum access to water during the whole period.
The GLP-1 derivatives were dissolved in 50 mM sodium phosphate, 145 mM sodium chloride, 0.05% tween 80, pH 7.4 to a concentration of usually from 20-60 nmol/ml. […] Blood samples (for example 0.8 ml) were collected in EDTA buffer (8 mM) and then centrifuged at 4° C. and 1942 G for 10 minutes.
Study B: Male Göttingen minipigs were obtained from Ellegaard Göttingen Minipigs (Dalmose, Denmark) approximately 5 months of age and weighing from approximately 9 kg were used in the studies. The minipigs were housed in pens with straw as bedding, six together in each pen and fed restrictedly once or twice daily with Altromin 9023 minipig diet (Chr. Petersen A/S, DK-4100 Ringsted) or Standard SMP(E) minipig diet (Special Diet Services (SDS), UK). The pigs were used for repeated pharmacokinetic studies with a suitable wash-out period between successive GLP-1 derivative dosings.
The GLP-1 derivatives were dissolved in 50 mM sodium phosphate, 145 mM sodium chloride, 0.05% tween 80, pH 7.4 to a concentration of usually from 20-60 nmol/ml. Intravenous injections (the volume corresponding to usually 2 nmol/kg, for example 0.1 ml/kg) of the compounds were given as intravenous injections via a Venflon inserted in an ear vein, while they are placed unanaesthetised in a sling. The dose volume was 0.1 ml/kg, and blood was sampled at predefined time points for up till 17 days post dosing (samples was taken with syringe from a jugular vein).
Individual plasma concentration-time profiles were analyzed by a non-compartmental model in Phoenix WinNonLin ver. […] (Pharsight Inc., Mountain View, Calif., USA), and the resulting terminal half-lives (harmonic mean) determined.

[6] = Receptor binding affinity IC50 (high HSA), 2.0% HSA (high albumin)
[7] = In vitro potency (CRE luciferase) EC50 (1% HSA), 1% HSA
[8] = Receptor binding affinity IC50 (low HSA), 0.001% HSA (low albumin)
[9] = In vitro potency (CRE luciferase) EC50 (0% HSA), 0% HSA

Compound | IC50 (human GLP-1 receptor [1]; [6]) [pM] | half-life [2] [h] | EC50 (human GLP-1 receptor [3]; [7]) [pM] | PD in pig, food intake (% of vehicle) for hours 0-24 ([4]; 0-24 h) | PD in pig, food intake (% of vehicle) for hours 24-48 ([4]; 24-48 h) | EC50/pM (ratio 1% HSA/0% HSA) (human GLP-1 receptor [3]) | half-life [5] [h] | IC50 (human GLP-1 receptor [1]; [8]) [pM] | EC50 (human GLP-1 receptor [3]; [9]) [pM]
CC[C@H](C)[C@H](NC(=O)[C@H](Cc1ccccc1)NC(=O)[C@H](CCC(=O)O)NC(=O)[C@H](CCCCNC(=O)[C@@H](N)CCCCNC(=O)CNC(=O)[C@H](CO)NC(=O)[C@H](CO)NC(=O)CNC(=O)[C@H](CO)NC(=O)[C@H](CO)NC(=O)CC[C@H](NC(=O)CCCCCCCCCCCOc1ccc(C(=O)O)cc1)C(=O)O)NC(=O)[C@H](C)NC(=O)[C@H](C)NC(=O)[C@H](CCC(N)=O)NC(=O)CNC(=O)[C@H](CCC(=O)O)NC(=O)[C@H](CC(C)C)NC(=O)[C@H](Cc1ccc(O)cc1)NC(=O)[C@H](CO)NC(=O)[C@H](CO)NC(=O)[C@@H](NC(=O)[C@H](CC(=O)O)NC(=O)[C@H](CO)NC(=O)[C@@H](NC(=O)[C@H](Cc1ccccc1)NC(=O)[C@@H](NC(=O)CNC(=O)[C@H](CCC(=O)O)NC(=O)C(C)(C)NC(=O)[C@@H](N)Cc1c[nH]cn1)[C@@H](C)O)[C@@H](C)O)C(C)C)C(=O)N[C@@H](C)C(=O)N[C@@H](Cc1c[nH]c2ccccc12)C(=O)N[C@@H](CC(C)C)C(=O)N[C@H](C(=O)N[C@@H](CCCNC(=N)N)C(=O)NCC(=O)N[C@@H](CCCNC(=N)N)C(=O)N[C@@H](CCCCNC(=O)[C@@H](N)CCCCNC(=O)CNC(=O)[C@H](CO)NC(=O)[C@H](CO)NC(=O)CNC(=O)[C@H](CO)NC(=O)[C@H](CO)NC(=O)CC[C@H](NC(=O)CCCCCCCCCCCOc1ccc(C(=O)O)cc1)C(=O)O)C(=O)O)C(C)C [Example 23] | 102000 | 19 | 156 | – | – | – | – | – | –
CC[C@H](C)[C@H](NC(=O)[C@H](Cc1ccccc1)NC(=O)[C@H](CCC(=O)O)NC(=O)[C@H](CCCCNC(=O)[C@@H](N)CCCCNC(=O)[C@H](CO)NC(=O)CNC(=O)[C@H](CO)NC(=O)CC[C@H](NC(=O)CCCCCCCCCCCOc1ccc(C(=O)O)cc1)C(=O)O)NC(=O)[C@H](C)NC(=O)[C@H](C)NC(=O)[C@H](CCC(N)=O)NC(=O)CNC(=O)[C@H](CCC(=O)O)NC(=O)[C@H](CC(C)C)NC(=O)[C@H](Cc1ccc(O)cc1)NC(=O)[C@H](CO)NC(=O)[C@H](CO)NC(=O)[C@@H](NC(=O)[C@H](CC(=O)O)NC(=O)[C@H](CO)NC(=O)[C@@H](NC(=O)[C@H](Cc1ccccc1)NC(=O)[C@@H](NC(=O)CNC(=O)[C@H](CCC(=O)O)NC(=O)C(C)(C)NC(=O)[C@@H](N)Cc1c[nH]cn1)[C@@H](C)O)[C@@H](C)O)C(C)C)C(=O)N[C@@H](C)C(=O)N[C@@H](Cc1c[nH]c2ccccc12)C(=O)N[C@@H](CC(C)C)C(=O)N[C@H](C(=O)N[C@@H](CCCNC(=N)N)C(=O)NCC(=O)N[C@@H](CCCNC(=N)N)C(=O)N[C@@H](CCCCNC(=O)[C@@H](N)CCCCNC(=O)[C@H](CO)NC(=O)CNC(=O)[C@H](CO)NC(=O)CC[C@H](NC(=O)CCCCCCCCCCCOc1ccc(C(=O)O)cc1)C(=O)O)C(=O)O)C(C)C [Example 24] | 136000 | – | 126 | 73 % of vehicle | 73 % of vehicle | 37 | 123 | – | –
CC[C@H](C)[C@H](NC(=O)[C@H](Cc1ccccc1)NC(=O)[C@H](CCC(=O)O)NC(=O)[C@H](CCCCNC(=O)[C@@H](N)CCCCNC(=O)[C@@H](N)CCCCNC(=O)CC[C@H](NC(=O)CC[C@H](NC(=O)CC[C@H](NC(=O)CCCCCCCCCCOc1ccc(C(=O)O)cc1)C(=O)O)C(=O)O)C(=O)O)NC(=O)[C@H](C)NC(=O)[C@H](C)NC(=O)[C@H](CCC(N)=O)NC(=O)CNC(=O)[C@H](CCC(=O)O)NC(=O)[C@H](CC(C)C)NC(=O)[C@H](Cc1ccc(O)cc1)NC(=O)[C@H](CO)NC(=O)[C@H](CO)NC(=O)[C@@H](NC(=O)[C@H](CC(=O)O)NC(=O)[C@H](CO)NC(=O)[C@@H](NC(=O)[C@H](Cc1ccccc1)NC(=O)[C@@H](NC(=O)CNC(=O)[C@H](CCC(=O)O)NC(=O)C(C)(C)NC(=O)[C@@H](N)Cc1c[nH]cn1)[C@@H](C)O)[C@@H](C)O)C(C)C)C(=O)N[C@@H](C)C(=O)N[C@@H](Cc1c[nH]c2ccccc12)C(=O)N[C@@H](CC(C)C)C(=O)N[C@H](C(=O)N[C@@H](CCCNC(=N)N)C(=O)NCC(=O)N[C@@H](CCCNC(=N)N)C(=O)N[C@@H](CCCCNC(=O)[C@@H](N)CCCCNC(=O)[C@@H](N)CCCCNC(=O)CC[C@H](NC(=O)CC[C@H](NC(=O)CC[C@H](NC(=O)CCCCCCCCCCOc1ccc(C(=O)O)cc1)C(=O)O)C(=O)O)C(=O)O)C(=O)O)C(C)C [Example 30] | 203000 | 16 | 93 | – | – | 17 | – | 420 | 5.4
CC[C@H](C)[C@H](NC(=O)[C@H](Cc1ccccc1)NC(=O)[C@H](CCC(=O)O)NC(=O)[C@H](CCCCNC(=O)[C@@H](N)CCCCNC(=O)[C@@H](N)CCCCNC(=O)CC[C@H](NC(=O)CCCCCCCCCCOc1ccc(C(=O)O)cc1)C(=O)O)NC(=O)[C@H](C)NC(=O)[C@H](C)NC(=O)[C@H](CCC(N)=O)NC(=O)[C@H](CCC(=O)O)NC(=O)[C@H](CCC(=O)O)NC(=O)[C@H](CC(C)C)NC(=O)[C@H](Cc1ccc(O)cc1)NC(=O)[C@H](CO)NC(=O)[C@H](CO)NC(=O)[C@@H](NC(=O)[C@H](CC(=O)O)NC(=O)[C@H](CO)NC(=O)[C@@H](NC(=O)[C@H](Cc1ccccc1)NC(=O)[C@@H](NC(=O)CNC(=O)[C@H](CCC(=O)O)NC(=O)C(C)(C)NC(=O)[C@@H](N)Cc1c[nH]cn1)[C@@H](C)O)[C@@H](C)O)C(C)C)C(=O)N[C@@H](C)C(=O)N[C@@H](Cc1c[nH]c2ccccc12)C(=O)N[C@@H](CC(C)C)C(=O)N[C@H](C(=O)N[C@@H](CCC(N)=O)C(=O)NCC(=O)N[C@@H](CCCNC(=N)N)C(=O)N[C@@H](CCCCNC(=O)[C@@H](N)CCCCNC(=O)[C@@H](N)CCCCNC(=O)CC[C@H](NC(=O)CCCCCCCCCCOc1ccc(C(=O)O)cc1)C(=O)O)C(=O)O)C(C)C [Example 36, N^ε26-[(2S)-2-amino-6-[[(2S)-2-amino-6-[[(4S)-4-carboxy-4-[11-(4-carboxyphenoxy)undecanoylamino]butanoyl]amino]hexanoyl]amino]hexanoyl], N^ε37-[(2S)-2-amino-6-[[(2S)-2-amino-6-[[(4S)-4-carboxy-4-[11-(4-carboxyphenoxy)undecanoylamino]butanoyl]amino]hexanoyl]amino]hexanoyl]-[Aib^8,Glu^22,Gln^34,Lys^37]-GLP-1-(7-37)-peptide] (H-H[Aib]EGTFTSDVSSYLEEQAAK([εLys-εLys-γGlu-Undecanoyl(11-OPh(4-COOH))])EFIAWLVQGRK([εLys-εLys-γGlu-Undecanoyl(11-OPh(4-COOH))])-OH; N-terminus and C-terminus assumed) | 25000 | – | 65 | – | – | 14 | 69 | 100 | 4.9
